According to PubChem BioAssay (NCI):
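48-hour exposure; five concentrations; linearly interpolated endpoints. The concentration for full growth arrest is given as TGI.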

Experiments:
Assay in all cases: NCI anticancer screen, dose series, 48 h
A498 renal = tested on: A498 renal
CAKI-1 renal = tested on: CAKI-1 renal
HCC-2998 colon = tested on: HCC-2998 colon
HCT-116 colon = tested on: HCT-116 colon
HCT-15 colon = tested on: HCT-15 colon
HOP-92 NSCLC = tested on: HOP-92 NSCLC
HT29 colon = tested on: HT29 colon
K-562 leukemia = tested on: K-562 leukemia
OVCAR-8 ovarian = tested on: OVCAR-8 ovarian
SF-539 CNS = tested on: SF-539 CNS
SK-MEL-28 melanoma = tested on: SK-MEL-28 melanoma
SN12C renal = tested on: SN12C renal
SNB-19 CNS = tested on: SNB-19 CNS
SNB-75 CNS = tested on: SNB-75 CNS
SR leukemia = tested on: SR leukemia
TK-10 renal = tested on: TK-10 renal
U251 CNS = tested on: U251 CNS
UO-31 renal = tested on: UO-31 renal

CC(=O)OC1CC2C(C)(C)OC(=O)CC(OC(C)=O)[C@]2(C)C2CCC3(C)C(=CCC3[C@H]3COC(=O)C3)[C@]12C (stereo partly specified)
TGI (A498 renal): > 100 µM
TGI (CAKI-1 renal): > 100 µM
TGI (HCC-2998 colon): > 100 µM
TGI (HCT-116 colon): > 100 µM
TGI (HCT-15 colon): > 100 µM
TGI (HOP-92 NSCLC): > 100 µM
TGI (HT29 colon): > 100 µM
TGI (K-562 leukemia): > 100 µM
TGI (OVCAR-8 ovarian): > 100 µM
TGI (SF-539 CNS): > 100 µM
TGI (SK-MEL-28 melanoma): > 100 µM
TGI (SN12C renal): > 100 µM
TGI (SNB-19 CNS): > 100 µM
TGI (SNB-75 CNS): > 100 µM
TGI (SR leukemia): 78.1 µM
TGI (TK-10 renal): > 100 µM
TGI (U251 CNS): > 100 µM
TGI (UO-31 renal): > 100 µM

C[n+]1cc(C(O)c2ccc3c(c2)OCO3)c2ccccc2c1 (stereo unspecified)
TGI (A498 renal): > 100 µM
TGI (CAKI-1 renal): 69.4 µM
TGI (HCC-2998 colon): > 100 µM
TGI (HCT-116 colon): > 100 µM
TGI (HCT-15 colon): > 100 µM
TGI (HT29 colon): > 100 µM
TGI (K-562 leukemia): > 100 µM
TGI (OVCAR-8 ovarian): > 100 µM
TGI (SF-539 CNS): > 100 µM
TGI (SN12C renal): > 100 µM
TGI (SNB-19 CNS): > 100 µM
TGI (SNB-75 CNS): > 100 µM
TGI (TK-10 renal): > 100 µM
TGI (U251 CNS): > 100 µM
TGI (UO-31 renal): 92.5 µM

O=C1Nc2c(ccc(Cl)c2I)C1=O
TGI (CAKI-1 renal): 30.6 µM
TGI (HCC-2998 colon): 34.4 µM
TGI (HCT-116 colon): 33.4 µM
TGI (HCT-15 colon): 38.6 µM
TGI (HT29 colon): > 100 µM
TGI (K-562 leukemia): 73.2 µM
TGI (OVCAR-8 ovarian): 76.7 µM
TGI (SK-MEL-28 melanoma): 32.7 µM
TGI (SN12C renal): 30.9 µM
TGI (SNB-19 CNS): > 100 µM
TGI (SR leukemia): 42.2 µM
TGI (TK-10 renal): 99.2 µM
TGI (U251 CNS): 56.9 µM
TGI (UO-31 renal): 32.1 µM

CC(C)C(=O)/C=C/c1ccc(Br)cc1
TGI (A498 renal): 28 µM
TGI (HCC-2998 colon): 30.9 µM
TGI (HCT-116 colon): 17.4 µM
TGI (HOP-92 NSCLC): 30.9 µM
TGI (HT29 colon): 31.6 µM
TGI (K-562 leukemia): > 100 µM
TGI (OVCAR-8 ovarian): 62.9 µM
TGI (SF-539 CNS): 35.5 µM
TGI (SK-MEL-28 melanoma): 41 µM
TGI (SN12C renal): 28.5 µM
TGI (SNB-19 CNS): 29.8 µM
TGI (SNB-75 CNS): 32.8 µM
TGI (SR leukemia): 53.6 µM
TGI (TK-10 renal): 32.3 µM
TGI (U251 CNS): 22.9 µM
TGI (UO-31 renal): 30.1 µM

O=C(CSc1nnc(Cc2ccccc2)o1)Nc1ccc([N+](=O)[O-])cc1
TGI (A498 renal): > 100 µM
TGI (HCC-2998 colon): > 100 µM
TGI (HCT-116 colon): > 100 µM
TGI (HCT-15 colon): > 100 µM
TGI (HT29 colon): > 100 µM
TGI (K-562 leukemia): > 100 µM
TGI (OVCAR-8 ovarian): > 100 µM
TGI (SF-539 CNS): > 100 µM
TGI (SK-MEL-28 melanoma): > 100 µM
TGI (SN12C renal): > 100 µM
TGI (SNB-75 CNS): > 100 µM
TGI (TK-10 renal): > 100 µM
TGI (U251 CNS): > 100 µM
TGI (UO-31 renal): > 100 µM

COc1cc2ccc3c4cc(OC)c(OC(C)C)cc4cnc3c2cc1OC
TGI (CAKI-1 renal): > 100 µM
TGI (HCC-2998 colon): > 100 µM
TGI (HCT-116 colon): > 100 µM
TGI (HCT-15 colon): > 100 µM
TGI (HOP-92 NSCLC): > 100 µM
TGI (HT29 colon): > 100 µM
TGI (K-562 leukemia): > 100 µM
TGI (OVCAR-8 ovarian): > 100 µM
TGI (SF-539 CNS): > 100 µM
TGI (SK-MEL-28 melanoma): > 100 µM
TGI (SN12C renal): > 100 µM
TGI (SNB-19 CNS): > 100 µM
TGI (SNB-75 CNS): > 100 µM
TGI (SR leukemia): > 100 µM
TGI (TK-10 renal): > 100 µM
TGI (U251 CNS): > 100 µM
TGI (UO-31 renal): > 100 µM

O=C(Cc1ccccc1)NN1C(=O)C(Cl)C1c1ccc(O)cc1 (stereo unspecified)
TGI (CAKI-1 renal): > 100 µM
TGI (HCC-2998 colon): > 100 µM
TGI (HCT-116 colon): > 100 µM
TGI (HCT-15 colon): > 100 µM
TGI (HT29 colon): > 100 µM
TGI (K-562 leukemia): > 100 µM
TGI (OVCAR-8 ovarian): > 100 µM
TGI (SK-MEL-28 melanoma): > 100 µM
TGI (SN12C renal): > 100 µM
TGI (SNB-19 CNS): > 100 µM
TGI (SNB-75 CNS): > 100 µM
TGI (SR leukemia): > 100 µM
TGI (TK-10 renal): > 100 µM
TGI (U251 CNS): > 100 µM
TGI (UO-31 renal): > 100 µM

COc1cc(C)c2c(c1C)OC(=O)c1c(C)c(Cl)c(O)c(C=O)c1O2
TGI (A498 renal): 33.2 µM
TGI (CAKI-1 renal): > 100 µM
TGI (HCC-2998 colon): 47.5 µM
TGI (HCT-116 colon): 54.9 µM
TGI (HT29 colon): 70.3 µM
TGI (K-562 leukemia): 45.6 µM
TGI (OVCAR-8 ovarian): 27.4 µM
TGI (SF-539 CNS): 26.6 µM
TGI (SN12C renal): > 100 µM
TGI (SNB-19 CNS): > 100 µM
TGI (SNB-75 CNS): 46.8 µM
TGI (SR leukemia): 31.9 µM
TGI (TK-10 renal): > 100 µM
TGI (UO-31 renal): 76 µM

COC(=O)OCC1OC(N2C(=O)NC(=O)C(Br)C2N=[N+]=[N-])CC1OC(=O)OC (stereo unspecified)
TGI (CAKI-1 renal): > 100 µM
TGI (HCC-2998 colon): > 100 µM
TGI (HCT-116 colon): > 100 µM
TGI (HCT-15 colon): > 100 µM
TGI (HOP-92 NSCLC): > 100 µM
TGI (HT29 colon): > 100 µM
TGI (OVCAR-8 ovarian): > 100 µM
TGI (SF-539 CNS): > 100 µM
TGI (SK-MEL-28 melanoma): > 100 µM
TGI (SN12C renal): > 100 µM
TGI (SNB-19 CNS): > 100 µM
TGI (SNB-75 CNS): > 100 µM
TGI (TK-10 renal): > 100 µM
TGI (U251 CNS): > 100 µM
TGI (UO-31 renal): > 100 µM

O=C1OC2(OC2c2ccccc2)c2ccccc21 (stereo unspecified)
TGI (HCC-2998 colon): > 100 µM
TGI (HCT-116 colon): > 100 µM
TGI (HCT-15 colon): > 100 µM
TGI (HOP-92 NSCLC): > 100 µM
TGI (HT29 colon): > 100 µM
TGI (K-562 leukemia): > 100 µM
TGI (OVCAR-8 ovarian): > 100 µM
TGI (SF-539 CNS): > 100 µM
TGI (SK-MEL-28 melanoma): > 100 µM
TGI (SN12C renal): > 100 µM
TGI (SNB-19 CNS): > 100 µM
TGI (SNB-75 CNS): > 100 µM
TGI (SR leukemia): > 100 µM
TGI (TK-10 renal): > 100 µM
TGI (U251 CNS): > 100 µM
TGI (UO-31 renal): > 100 µM

CCCC(C)NC1=C(NC(C)=O)C(=O)c2ccccc2C1=O (stereo unspecified)
TGI (HCC-2998 colon): > 100 µM
TGI (HCT-116 colon): > 100 µM
TGI (HCT-15 colon): > 100 µM
TGI (HOP-92 NSCLC): > 100 µM
TGI (HT29 colon): > 100 µM
TGI (K-562 leukemia): > 100 µM
TGI (OVCAR-8 ovarian): > 100 µM
TGI (SF-539 CNS): > 100 µM
TGI (SK-MEL-28 melanoma): > 100 µM
TGI (SN12C renal): > 100 µM
TGI (SNB-19 CNS): > 100 µM
TGI (SNB-75 CNS): > 100 µM
TGI (SR leukemia): > 100 µM
TGI (TK-10 renal): > 100 µM
TGI (U251 CNS): > 100 µM
TGI (UO-31 renal): > 100 µM

O=C1c2ccccc2CCCCCCCCCCC12OCCCO2
TGI (A498 renal): 97.5 µM
TGI (CAKI-1 renal): 95.7 µM
TGI (HCC-2998 colon): 68.2 µM
TGI (HCT-116 colon): 38.3 µM
TGI (HCT-15 colon): 92.3 µM
TGI (HT29 colon): 42.9 µM
TGI (K-562 leukemia): > 100 µM
TGI (OVCAR-8 ovarian): > 100 µM
TGI (SF-539 CNS): > 100 µM
TGI (SK-MEL-28 melanoma): > 100 µM
TGI (SN12C renal): > 100 µM
TGI (SNB-19 CNS): 77.5 µM
TGI (SNB-75 CNS): > 100 µM
TGI (TK-10 renal): > 100 µM
TGI (U251 CNS): > 100 µM
TGI (UO-31 renal): > 100 µM
